Test results reported in patent US11180496B2 (Daewoong Pharmaceutical Co., Ltd., priority 2017, dated 2021).

Key:
ITK = biological target: T1, ITK (Homo sapiens, UniProt Q08881); assay: ITK inhibitory activity, ADP-Glo + ITK Kinase enzyme system kit (Promega); assay type: biochemical; conditions: ITK enzyme 0.4 ng/uL, ATP 25 uM, 15 min preincubation, luminescence, duplicate
T1 construct: purchased Promega
T1 sequence (Q08881 1-620): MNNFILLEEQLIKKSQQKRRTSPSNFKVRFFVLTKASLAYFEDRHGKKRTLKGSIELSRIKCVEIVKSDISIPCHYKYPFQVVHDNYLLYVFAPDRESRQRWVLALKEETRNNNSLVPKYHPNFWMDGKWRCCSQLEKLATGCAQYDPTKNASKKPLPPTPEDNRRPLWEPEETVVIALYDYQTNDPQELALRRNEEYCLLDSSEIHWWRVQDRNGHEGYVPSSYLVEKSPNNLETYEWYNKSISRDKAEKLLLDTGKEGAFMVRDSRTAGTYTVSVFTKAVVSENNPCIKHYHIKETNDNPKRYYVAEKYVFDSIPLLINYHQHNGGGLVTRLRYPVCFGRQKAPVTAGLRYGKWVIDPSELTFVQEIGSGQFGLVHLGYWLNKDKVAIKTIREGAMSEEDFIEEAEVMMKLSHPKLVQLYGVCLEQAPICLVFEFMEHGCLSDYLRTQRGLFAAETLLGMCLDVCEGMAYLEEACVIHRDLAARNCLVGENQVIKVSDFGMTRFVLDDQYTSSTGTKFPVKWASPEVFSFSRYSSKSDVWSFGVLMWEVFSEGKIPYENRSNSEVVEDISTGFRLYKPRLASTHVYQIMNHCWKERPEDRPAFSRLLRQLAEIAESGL
Protocol: (§1) The inhibitory activity against BTK and ITK of the compounds prepared in Examples above were measured as follows.
(§2) The inhibitory activity against ITK was evaluated using ‘ADP-Glo™+ITK Kinase enzyme system’ kit from Promega. […] 5 uL of substrate and 5 uL of ATP prepared at a final concentration of 25 uM were added to all wells of the plate after completion of the reaction, and allowed to react at 30° C. for 1 hour. All wells of the plate after completion of the reaction were treated with 25 uL of ADP-Glo™ reagent and reacted at 30° C. for 40 minutes. Then, 50 uL of the kinase detection buffer was applied to all wells of the plate, and then the light was blocked and reacted at 30° C. for 30 minutes. For the plate for which all reactions were completed, the luminescence was measured and the results were calculated. The evaluation was performed in duplicate. The respective values of negative and positive controls, depending on whether the enzymes were added without treatment of the compound, were determined, and IC50 was calculated based on the values.

BTK = biological target: T2, BTK (Homo sapiens, UniProt Q06187); assay: BTK inhibitory activity, ADP-Glo + BTK Kinase enzyme system kit (Promega); assay type: biochemical; conditions: BTK enzyme 1 ng/uL, ATP 10 uM, 15 min preincubation, luminescence, duplicate
T2 construct: purchased Promega
T2 sequence (Q06187 whole entry): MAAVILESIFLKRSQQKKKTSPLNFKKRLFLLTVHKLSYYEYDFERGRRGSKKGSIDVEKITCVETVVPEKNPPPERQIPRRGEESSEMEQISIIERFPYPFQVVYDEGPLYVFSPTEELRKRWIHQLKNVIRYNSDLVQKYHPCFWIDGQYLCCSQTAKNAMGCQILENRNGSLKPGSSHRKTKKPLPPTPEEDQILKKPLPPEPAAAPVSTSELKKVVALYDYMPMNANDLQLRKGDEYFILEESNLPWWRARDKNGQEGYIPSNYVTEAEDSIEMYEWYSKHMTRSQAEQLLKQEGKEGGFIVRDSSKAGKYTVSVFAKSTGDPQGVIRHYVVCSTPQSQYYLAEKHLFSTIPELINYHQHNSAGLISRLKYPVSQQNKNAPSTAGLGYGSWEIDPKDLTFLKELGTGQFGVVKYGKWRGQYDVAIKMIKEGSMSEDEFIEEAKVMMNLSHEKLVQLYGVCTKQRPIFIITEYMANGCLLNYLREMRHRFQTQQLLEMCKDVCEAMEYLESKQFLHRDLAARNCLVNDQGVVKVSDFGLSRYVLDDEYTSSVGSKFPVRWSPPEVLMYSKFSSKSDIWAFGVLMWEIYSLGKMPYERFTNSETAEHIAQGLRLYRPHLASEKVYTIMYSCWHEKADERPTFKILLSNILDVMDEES
Protocol: as §1
as §2, with “against BTK” for “against ITK”, “using ‘ADP-Glo™+BTK” for “using ‘ADP-Glo™+ITK”, “of 10” for “of 25”

SMILES	IC50 (ITK)	IC50 (BTK)
C=CC(=O)N1CCCC(n2nc(-c3ccc(Oc4ccccc4)cc3)c3c(N)ncc(-c4ccccc4)c32)C1 (centres unmarked) [Example 11, 1-(3-(4-amino-3-(4-phenoxyphenyl)-7-phenyl-1H-pyrazolo[4,3-c]pyridin-1-yl)piperidin-1-yl)prop-2-en-1-one]	224 nM	11.4 nM
C=CC(=O)N1CCC[C@@H](n2nc(C(=O)Nc3nc4cc(Cl)ccc4o3)c3c(N)ncc(Cl)c32)C1 [Example 74, (R)-1-(1-acryloylpiperidin-3-yl)-4-amino-7-chloro-N-(5-chlorobenzo[d]oxazol-2-yl)-1H-pyrazolo[4,3-c]pyridine-3-carboxamide]	6.4 nM	3.3 nM
C=CC(=O)N1CCC[C@@H](n2nc(-c3ccc(C(=O)Nc4ccccn4)cc3Cl)c3c(N)ncc(CC)c32)C1 [Example 68, (R)-4-(1-(1-acryloylpiperidin-3-yl)-4-amino-7-ethyl-1H-pyrazolo[4,3-c]pyridin-3-yl)-3-chloro-N-(pyridin-2-yl)benzamide]	1.7 nM	0.9 nM
C=CC(=O)N1CCC[C@@H](n2nc(-c3ccc(C(=O)Nc4ccccn4)cc3)c3c(N)ncc(Cl)c32)C1 [Example 19, (R)-4-(1-(1-acryloylpiperidin-3-yl)-4-amino-7-chloro-1H-pyrazolo[4,3-c]pyridin-3-yl)-N-(pyridin-2-yl)benzamide]	7.8 nM	1.7 nM
C=CC(=O)N1CCC[C@@H](n2nc(C(=O)OC(C)(C)C)c3c(N)nccc32)C1 [Example 72, (R)-tert-butyl 1-(1-acryloylpiperidin-3-yl)-4-amino-1H-pyrazolo[4,3-c]pyridine-3-carboxylate]	68.2 nM	88.9 nM
C=CC(=O)N1CCC[C@@H](n2nc(-c3ccc(C(=O)Nc4ccccc4)cc3)c3c(N)ncc(-c4cc[nH]n4)c32)C1 [Example 29, (R)-4-(1-(1-acryloylpiperidin-3-yl)-4-amino-7-(1H-pyrazol-3-yl)-1H-pyrazolo[4,3-c]pyridin-3-yl)-N-phenylbenzamide]	556 nM	3.1 nM
C=CC(=O)N1CCC[C@H](n2nc(-c3ccc(C(=O)Nc4ccccn4)cc3)c3c(N)nccc32)C1 [Example 39, (S)-4-(1-(1-acryloylpiperidin-3-yl)-4-amino-1H-pyrazolo[4,3-c]pyridin-3-yl)-N-(pyridin-2-yl)benzamide]	> 1000 nM	3.5 nM
C=CC(=O)N1CCC[C@@H](n2nc(-c3ccc(C(=O)Nc4ccccc4)cc3)c3c(N)ncc(-c4cnn(CCN(C)C)c4)c32)C1 [Example 36, (R)-4-(1-(1-acryloylpiperidin-3-yl)-4-amino-7-(1-(2-(dimethylamino)ethyl)-1H-pyrazol-4-yl)-1H-pyrazolo[4,3-c]pyridin-3-yl)-N-phenylbenzamide]	89 nM	1.5 nM
C=CC(=O)N1CCC[C@@H](n2nc(-c3ccc(C(=O)Nc4ccccc4)cc3)c3c(N)ncc(-c4cnn(C(F)F)c4)c32)C1 [Example 33, (R)-4-(1-(1-acryloylpiperidin-3-yl)-4-amino-7-(1-(difluoromethyl)-1H-pyrazol-4-yl)-1H-pyrazolo[4,3-c]pyridin-3-yl)-N-phenylbenzamide]	307 nM	10.2 nM
C=CC(=O)N1CCCC(n2nc(-c3ccc(Oc4ccccc4)cc3)c3c(N)ncc(I)c32)C1 (centres unmarked) [Example 5, 1-(3-(4-amino-7-iodo-3-(4-phenoxyphenyl)-1H-pyrazolo[4,3-c]pyridin-1-yl)piperidin-1-yl)prop-2-en-1-one]	19.5 nM	6.7 nM
C=CC(=O)N1CCC[C@@H](n2nc(-c3ccc(C(=O)Nc4ccccc4)cc3)c3c(N)ncc(-c4cnc(C)s4)c32)C1 [Example 32, (R)-4-(1-(1-acryloylpiperidin-3-yl)-4-amino-7-(2-methylthiazol-5-yl)-1H-pyrazolo[4,3-c]pyridin-3-yl)-N-phenylbenzamide]	200 nM	6.2 nM
C=CC(=O)N1CCCC(n2nc(-c3ccc(Oc4ccccc4)cc3)c3c(N)ncc(/C=C/c4ccc(F)cc4)c32)C1 (centres unmarked) [Example 14, (E)-1-(3-(4-amino-7-(4-fluorostyryl)-3-(4-phenoxyphenyl)-1H-pyrazolo[4,3-c]pyridin-1-yl)piperidin-1-yl)prop-2-en-1-one]	38.4 nM	4.1 nM

Other lines, results leading:

IC50 (ITK)	IC50 (BTK)	SMILES
10.1 nM	1.5 nM	C=CC(=O)N1CCC[C@@H](n2nc(-c3ccc(C(=O)Nc4cc(F)ccn4)cc3)c3c(N)nccc32)C1 [Example 41, (R)-4-(1-(1-acryloylpiperidin-3-yl)-4-amino-1H-pyrazolo[4,3-c]pyridin-3-yl)-N-(4-fluoropyridin-2-yl)benzamide]
376 nM	15.9 nM	C=CC(=O)N1CCC[C@@H](n2nc(-c3ccc(C(=O)Nc4ccccc4)cc3)c3c(N)ncc(-c4ccsc4)c32)C1 [Example 31, (R)-4-(1-(1-acryloylpiperidin-3-yl)-4-amino-7-(thiophen-3-yl)-1H-pyrazolo[4,3-c]pyridin-3-yl)-N-phenylbenzamide]
> 500 nM	7.3 nM	C=CC(=O)N1CC2CC1C(n1nc(-c3ccc(Oc4ccccc4)cc3)c3c(N)ncc(-c4cnn(C)c4)c31)C2 (centres unmarked) [Example 8, 1-(6-(4-amino-7-(1-methyl-1H-pyrazol-4-yl)-3-(4-phenoxyphenyl)-1H-pyrazolo[4,3-c]pyridin-1-yl)-2-azabicyclo[2.2.1]heptan-2-yl)prop-2-en-1-one]
27 nM	22.1 nM	C=CC(=O)N1CCC[C@@H](n2nc(C(=O)Nc3ccccc3)c3c(N)ncc(Cl)c32)C1 [Example 78, (R)-1-(1-acryloylpiperidin-3-yl)-4-amino-7-chloro-N-phenyl-1H-pyrazolo[4,3-c]pyridine-3-carboxamide]
2.1 nM	1.5 nM	C=CC(=O)N1CCC[C@@H](n2nc(C(=O)Nc3nc4cc(F)ccc4o3)c3c(N)ncc(Cl)c32)C1 [Example 76, (R)-1-(1-acryloylpiperidin-3-yl)-4-amino-7-chloro-N-(5-fluorobenzo[d]oxazol-2-yl)-1H-pyrazolo[4,3-c]pyridine-3-carboxamide]
11.4 nM	0.5 nM	C=CC(=O)N1CCC[C@@H](n2nc(-c3ccc(C(=O)Nc4ccccn4)cc3OC)c3c(N)nccc32)C1 [Example 57, (R)-4-(1-(1-acryloylpiperidin-3-yl)-4-amino-1H-pyrazolo[4,3-c]pyridin-3-yl)-3-methoxy-N-(pyridin-2-yl)benzamide]
263 nM	0.4 nM	C=CC(=O)N1CC(n2nc(-c3ccc(C(=O)Nc4ccccn4)cc3F)c3c(N)ncc(Cl)c32)C1 [Example 60, 4-(1-(1-acryloylazetidin-3-yl)-4-amino-7-chloro-1H-pyrazolo[4,3-c]pyridin-3-yl)-3-fluoro-N-(pyridin-2-yl)benzamide]
0.6 nM	0.4 nM	C=CC(=O)N1CCC[C@@H](n2nc(-c3ccc(C(=O)Nc4ccccn4)cc3Cl)c3c(N)nccc32)C1 [Example 56, (R)-4-(1-(1-acryloylpiperidin-3-yl)-4-amino-1H-pyrazolo[4,3-c]pyridin-3-yl)-3-chloro-N-(pyridin-2-yl)benzamide]
490 nM	3 nM	C=CC(=O)N1CCC[C@@H](n2nc(-c3ccc(C(=O)Nc4ccccc4)cc3)c3c(N)ncc(-c4cc[nH]n4)c32)C1 [Example 30, (R)-4-(1-(1-acryloylpiperidin-3-yl)-4-amino-7-(1H-pyrazol-5-yl)-1H-pyrazolo[4,3-c]pyridin-3-yl)-N-phenylbenzamide]
8.1 nM	6.3 nM	C=CC(=O)N1CCC[C@@H](n2nc(Br)c3c(N)nccc32)C1 [Example 62, (R)-1-(3-(4-amino-3-bromo-1H-pyrazolo[4,3-c]pyridin-1-yl)piperidin-1-yl)prop-2-en-1-one]
